Some test systems named below: A498 renal; SW-620 colon; NCI/ADR-RES ovarian; SNB-19 CNS; M14 melanoma; SNB-75 CNS; DU-145 prostate; MDA-MB-435; NCI-H23 lung; HOP-92 NSCLC.
Assay in all cases: inhibition of tumour cell growth, NCI panel, 48 h

Structures are written as SMILES.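 Results reflect a 48-hour exposure of cells in 96-well plates to compound at five concentrations. The concentration for 50% growth inhibition is given as GI50. TGI: concentration producing complete growth inhibition.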

Turning to `O=S(=O)(Nc1ccccn1)c1ccc(N=Nc2ccc(O)c3ncccc23)cc1`, the GI50 in the experiment with A498 renal is 1770 nM; in the experiment on SW-620 colon it was 952 nM; in the experiment with NCI/ADR-RES ovarian, 1020 nM; with SNB-19 CNS it was 771 nM; with M14 melanoma it was 1210 nM; with SNB-75 CNS it was 675 nM. In addition, the GI50 was 3220 nM with DU-145 prostate, 638 nM in the experiment with MDA-MB-435, 2340 nM in the experiment on NCI-H23 lung and 1210 nM in the experiment with HOP-92 NSCLC. Besides, the TGI is 5730 nM in the experiment on A498 renal; 25500 nM in the experiment with SW-620 colon; 12800 nM in the experiment with NCI/ADR-RES ovarian; over 53300 nM with SNB-19 CNS; 5550 nM with M14 melanoma; 3330 nM with SNB-75 CNS. Besides, the TGI in the experiment with DU-145 prostate was determined as 26700 nM; with MDA-MB-435, 8410 nM; in the experiment on NCI-H23 lung it was 16000 nM; in the experiment on HOP-92 NSCLC it was 5340 nM.

As to `CN1CCN(CC(=O)N2c3cccc4cccc(c34)N(C(=O)CN3CCN(C)CC3)C2c2cn(-c3ccccc3)nc2-c2cccc([N+](=O)[O-])c2)CC1`, the GI50 with A498 renal is 1920 nM; in the experiment with SW-620 colon it was 1910 nM; with NCI/ADR-RES ovarian it was 3680 nM; in the experiment with SNB-19 CNS it was 2960 nM; with M14 melanoma, 1750 nM; in the experiment on SNB-75 CNS, 1320 nM. The GI50 was 3270 nM with DU-145 prostate, 1980 nM in the experiment with MDA-MB-435, 2130 nM with NCI-H23 lung and 1130 nM in the experiment with HOP-92 NSCLC. Moreover, the TGI was 3950 nM with A498 renal; 4370 nM with SW-620 colon; 14300 nM in the experiment on NCI/ADR-RES ovarian; 11300 nM with SNB-19 CNS; 3340 nM in the experiment with M14 melanoma; 2710 nM in the experiment on SNB-75 CNS. The TGI worked out at 10400 nM with DU-145 prostate, 3930 nM with MDA-MB-435, 5450 nM in the experiment on NCI-H23 lung and 3180 nM in the experiment with HOP-92 NSCLC.

`O=C(O)CCSC(=S)Nc1ccc([N+](=O)[O-])cc1`: the TGI with A498 renal, in the experiment with SW-620 colon, with NCI/ADR-RES ovarian, in the experiment on SNB-19 CNS, in the experiment with M14 melanoma and with SNB-75 CNS was over 100000 nM each time. The TGI in the experiment on DU-145 prostate was over 100000 nM; with MDA-MB-435 it was 61300 nM; in the experiment with NCI-H23 lung, over 100000 nM; with HOP-92 NSCLC, 68900 nM.

As to `COc1cc2c3c(n(CCCN4CCCC(O)C4)c(=O)c2cc1OC)-c1cc2c(cc1C3=O)OCO2` (stereo not given), the GI50 with A498 renal was 7730 nM; in the experiment with SW-620 colon it was 47 nM; in the experiment on NCI/ADR-RES ovarian, 50.3 nM; with SNB-19 CNS, 600 nM; with M14 melanoma, 29.7 nM; with SNB-75 CNS it was 546 nM. Also, the GI50 was under 5 nM in the experiment on DU-145 prostate, 836 nM in the experiment on MDA-MB-435, 42.1 nM in the experiment with NCI-H23 lung and 31.2 nM in the experiment with HOP-92 NSCLC. Also, the TGI in the experiment with A498 renal came to 25100 nM; with SW-620 colon, 7610 nM; with NCI/ADR-RES ovarian, 1060 nM; in the experiment on SNB-19 CNS, 10500 nM; in the experiment on M14 melanoma, 972 nM; in the experiment with SNB-75 CNS, 1570 nM. Also, the TGI in the experiment on DU-145 prostate was determined as 592 nM; in the experiment on MDA-MB-435, 2980 nM; in the experiment on NCI-H23 lung, 775 nM; in the experiment on HOP-92 NSCLC it was 901 nM.

For `CC[CH2][Sn]([CH2]CC)([O]C(=O)Cc1ccc(F)cc1)[O][Sn]([CH2]CC)([CH2]CC)[O]C(=O)Cc1ccc(F)cc1`, the GI50 in the experiment on A498 renal is 149 nM; with SW-620 colon it was 77.3 nM; with NCI/ADR-RES ovarian it was 574 nM; in the experiment on SNB-19 CNS it was 443 nM; with M14 melanoma, 237 nM; with SNB-75 CNS, 270 nM. The GI50 is 537 nM in the experiment on DU-145 prostate, 393 nM with MDA-MB-435, 53.9 nM in the experiment with NCI-H23 lung and 174 nM with HOP-92 NSCLC. For the same compound, the TGI with A498 renal came to 469 nM; in the experiment on SW-620 colon, 220 nM; in the experiment with NCI/ADR-RES ovarian, 1930 nM; in the experiment with SNB-19 CNS, 1350 nM; in the experiment on M14 melanoma it was 622 nM; in the experiment with SNB-75 CNS, 1430 nM. For the same compound, the TGI in the experiment on DU-145 prostate was found to be 1800 nM; with MDA-MB-435, 1610 nM; with NCI-H23 lung, 276 nM; with HOP-92 NSCLC, 522 nM.

For `Cc1cc(N(CCOS(C)(=O)=O)CCOS(C)(=O)=O)ccc1C=Nc1ccc(-c2csc(-c3ccc(Br)cc3)n2)cc1`, the TGI in the experiment with A498 renal is 6400 nM; in the experiment on SW-620 colon it was over 100000 nM; in the experiment with NCI/ADR-RES ovarian it was 90700 nM; with SNB-19 CNS, over 88100 nM; in the experiment with M14 melanoma, 50100 nM; in the experiment on SNB-75 CNS it was 23800 nM. The TGI was determined as 57400 nM with DU-145 prostate, 58800 nM with MDA-MB-435, 41700 nM in the experiment with NCI-H23 lung and 38300 nM with HOP-92 NSCLC.

On to `Oc1c(CN2CCN(c3ccccc3F)CC2)cc(Br)c2cccnc12`, for which the GI50 in the experiment with A498 renal is 695 nM; with SW-620 colon, 470 nM; with NCI/ADR-RES ovarian it was 224 nM; in the experiment with SNB-19 CNS, 1140 nM; in the experiment with M14 melanoma, 924 nM; in the experiment on SNB-75 CNS it was 1910 nM. The GI50 in the experiment with DU-145 prostate is 1710 nM; in the experiment with MDA-MB-435, 1310 nM; in the experiment on NCI-H23 lung it was 1330 nM; in the experiment with HOP-92 NSCLC it was 896 nM. Besides, the TGI in the experiment on A498 renal is 9230 nM; with SW-620 colon, 20200 nM; with NCI/ADR-RES ovarian it was 21900 nM; in the experiment on SNB-19 CNS, over 100000 nM; in the experiment on M14 melanoma, 16500 nM; in the experiment on SNB-75 CNS, over 100000 nM. Besides, the TGI in the experiment with DU-145 prostate is 17700 nM; with MDA-MB-435, over 100000 nM; in the experiment on NCI-H23 lung it was 25200 nM; in the experiment on HOP-92 NSCLC it was 19800 nM.

Turning to `C[C@@H]1OCC2(CCN(c3cnc(Sc4ccnc(N)c4Cl)c(N)n3)CC2)[C@@H]1N`, the GI50 with A498 renal is 128 nM; in the experiment on SW-620 colon, 88700 nM; in the experiment with NCI/ADR-RES ovarian it was over 100000 nM; in the experiment on SNB-19 CNS it was over 100000 nM; in the experiment with M14 melanoma, over 100000 nM; in the experiment on SNB-75 CNS, 15100 nM. The GI50 is over 67800 nM with DU-145 prostate, over 100000 nM with MDA-MB-435, 1340 nM in the experiment with NCI-H23 lung and 46.9 nM in the experiment on HOP-92 NSCLC. Further, the TGI in the experiment with A498 renal is 4600 nM; with SW-620 colon, over 100000 nM; in the experiment with NCI/ADR-RES ovarian, over 100000 nM; in the experiment on SNB-19 CNS, over 100000 nM; in the experiment with M14 melanoma, over 100000 nM; with SNB-75 CNS, over 100000 nM. Besides, the TGI in the experiment with DU-145 prostate is over 100000 nM; in the experiment with MDA-MB-435, over 100000 nM; in the experiment on NCI-H23 lung, over 100000 nM; with HOP-92 NSCLC, 788 nM.

The values are drawn from PubChem BioAssay (NCI).
